According to US20090105270A1, “Kinase inhibition and anticancer therapy” (priority 2007, published 2009):

Tests used:
SGK2(h) = SGK2(h) (Homo sapiens, UniProt Q9HBY8); test: Upstate kinase activity inhibition assay SGK2(h); details: 40 min, read-out: percentage of enzyme activity that remains
TSSK2(h) = target: T1, TSSK2(h) (Homo sapiens, UniProt Q96PF2); test: Upstate kinase activity inhibition assay TSSK2(h); type: biochemical; details: 40 min; read-out: percentage of enzyme activity that remains
T1 construct: purchased Upstate (KinaseProfiler service)
T1 sequence (Q96PF2 whole entry): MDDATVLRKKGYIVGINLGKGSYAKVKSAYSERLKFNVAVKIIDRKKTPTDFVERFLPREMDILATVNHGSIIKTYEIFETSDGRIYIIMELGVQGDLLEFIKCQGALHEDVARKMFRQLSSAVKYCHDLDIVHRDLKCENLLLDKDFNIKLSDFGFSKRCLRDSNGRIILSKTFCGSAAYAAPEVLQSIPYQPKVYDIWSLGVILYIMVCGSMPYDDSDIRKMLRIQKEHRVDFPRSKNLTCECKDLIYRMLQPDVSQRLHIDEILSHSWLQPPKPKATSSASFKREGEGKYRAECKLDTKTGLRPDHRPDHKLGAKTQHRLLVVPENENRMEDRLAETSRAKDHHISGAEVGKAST

Rsk3(h) = Rsk3(h) (Homo sapiens, UniProt Q15349); test: Upstate kinase activity inhibition assay Rsk3(h); details: 40 min, read-out: percentage of enzyme activity that remains
PKBβ(h) = PKBβ(h) (Homo sapiens, UniProt P31751); test: Upstate kinase activity inhibition assay PKBβ(h); details: 40 min, read-out: percentage of enzyme activity that remains
Fer(h) = target: T2, Fer(h) (Homo sapiens, UniProt P16591); test: Upstate kinase activity inhibition assay Fer(h); type: biochemical; details: 40 min; read-out: percentage of enzyme activity that remains
T2 construct: purchased Upstate (KinaseProfiler service)

Lyn(h) = target: T3, Lyn(h) (Homo sapiens, UniProt P07948); test: Upstate kinase activity inhibition assay Lyn(h); type: biochemical; details: 40 min; read-out: percentage of enzyme activity that remains
T3 construct: purchased Upstate (KinaseProfiler service)

SAPK4(h) = SAPK4(h) (Homo sapiens, UniProt O15264); test: Upstate kinase activity inhibition assay SAPK4(h); details: 40 min, read-out: percentage of enzyme activity that remains
PKCβII(h) = target: T4, PKCβII(h) (Homo sapiens, UniProt P05771); test: Upstate kinase activity inhibition assay PKCβII(h); type: biochemical; details: 40 min; read-out: percentage of enzyme activity that remains
T4 construct: purchased Upstate (KinaseProfiler service)

PKCα(h) = PKCα(h) (Homo sapiens, UniProt P17252); test: Upstate kinase activity inhibition assay PKCα(h); details: 40 min, read-out: percentage of enzyme activity that remains
DDR2(h) = target: T5, DDR2(h) (Homo sapiens, UniProt Q16832); test: Upstate kinase activity inhibition assay DDR2(h); type: biochemical; details: 40 min; read-out: percentage of enzyme activity that remains
T5 construct: purchased Upstate (KinaseProfiler service)

Rsk2(h) = Rsk2(h) (Homo sapiens, UniProt P51812); test: Upstate kinase activity inhibition assay Rsk2(h); details: 40 min, read-out: percentage of enzyme activity that remains
Sequence of Rsk2(h) (P51812 whole entry): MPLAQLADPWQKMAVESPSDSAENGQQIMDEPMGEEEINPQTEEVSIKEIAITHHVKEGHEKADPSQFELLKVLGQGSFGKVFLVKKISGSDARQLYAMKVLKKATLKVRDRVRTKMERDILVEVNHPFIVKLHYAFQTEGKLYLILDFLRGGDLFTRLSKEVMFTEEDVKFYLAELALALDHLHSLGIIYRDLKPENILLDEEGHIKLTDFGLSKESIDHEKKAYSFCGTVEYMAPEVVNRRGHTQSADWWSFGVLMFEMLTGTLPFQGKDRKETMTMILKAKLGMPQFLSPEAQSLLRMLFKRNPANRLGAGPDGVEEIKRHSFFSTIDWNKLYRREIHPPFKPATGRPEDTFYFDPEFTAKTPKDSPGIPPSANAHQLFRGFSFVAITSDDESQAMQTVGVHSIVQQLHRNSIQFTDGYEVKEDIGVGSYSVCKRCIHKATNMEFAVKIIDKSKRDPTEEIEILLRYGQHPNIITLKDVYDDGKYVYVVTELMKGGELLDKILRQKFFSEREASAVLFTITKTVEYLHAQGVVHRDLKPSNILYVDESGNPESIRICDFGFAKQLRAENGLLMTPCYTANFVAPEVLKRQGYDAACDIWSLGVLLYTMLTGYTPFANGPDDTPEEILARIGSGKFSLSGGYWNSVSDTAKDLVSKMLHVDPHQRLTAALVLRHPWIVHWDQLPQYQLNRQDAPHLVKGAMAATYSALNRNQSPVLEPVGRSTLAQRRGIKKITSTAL

Mnk2(h) = target: T6, Mnk2(h) (Homo sapiens, UniProt Q9HBH9); test: Upstate kinase activity inhibition assay Mnk2(h); type: biochemical; details: 40 min; read-out: percentage of enzyme activity that remains
T6 construct: purchased Upstate (KinaseProfiler service)

Arg(h) = Arg(h) (Homo sapiens, UniProt P42684); test: Upstate kinase activity inhibition assay Arg(h); details: 40 min, read-out: percentage of enzyme activity that remains
DAPK1(h) = DAPK1(h) (Homo sapiens, UniProt P53355); test: Upstate kinase activity inhibition assay DAPK1(h); details: 40 min, read-out: percentage of enzyme activity that remains
Sequence of DAPK1(h) (P53355 whole entry): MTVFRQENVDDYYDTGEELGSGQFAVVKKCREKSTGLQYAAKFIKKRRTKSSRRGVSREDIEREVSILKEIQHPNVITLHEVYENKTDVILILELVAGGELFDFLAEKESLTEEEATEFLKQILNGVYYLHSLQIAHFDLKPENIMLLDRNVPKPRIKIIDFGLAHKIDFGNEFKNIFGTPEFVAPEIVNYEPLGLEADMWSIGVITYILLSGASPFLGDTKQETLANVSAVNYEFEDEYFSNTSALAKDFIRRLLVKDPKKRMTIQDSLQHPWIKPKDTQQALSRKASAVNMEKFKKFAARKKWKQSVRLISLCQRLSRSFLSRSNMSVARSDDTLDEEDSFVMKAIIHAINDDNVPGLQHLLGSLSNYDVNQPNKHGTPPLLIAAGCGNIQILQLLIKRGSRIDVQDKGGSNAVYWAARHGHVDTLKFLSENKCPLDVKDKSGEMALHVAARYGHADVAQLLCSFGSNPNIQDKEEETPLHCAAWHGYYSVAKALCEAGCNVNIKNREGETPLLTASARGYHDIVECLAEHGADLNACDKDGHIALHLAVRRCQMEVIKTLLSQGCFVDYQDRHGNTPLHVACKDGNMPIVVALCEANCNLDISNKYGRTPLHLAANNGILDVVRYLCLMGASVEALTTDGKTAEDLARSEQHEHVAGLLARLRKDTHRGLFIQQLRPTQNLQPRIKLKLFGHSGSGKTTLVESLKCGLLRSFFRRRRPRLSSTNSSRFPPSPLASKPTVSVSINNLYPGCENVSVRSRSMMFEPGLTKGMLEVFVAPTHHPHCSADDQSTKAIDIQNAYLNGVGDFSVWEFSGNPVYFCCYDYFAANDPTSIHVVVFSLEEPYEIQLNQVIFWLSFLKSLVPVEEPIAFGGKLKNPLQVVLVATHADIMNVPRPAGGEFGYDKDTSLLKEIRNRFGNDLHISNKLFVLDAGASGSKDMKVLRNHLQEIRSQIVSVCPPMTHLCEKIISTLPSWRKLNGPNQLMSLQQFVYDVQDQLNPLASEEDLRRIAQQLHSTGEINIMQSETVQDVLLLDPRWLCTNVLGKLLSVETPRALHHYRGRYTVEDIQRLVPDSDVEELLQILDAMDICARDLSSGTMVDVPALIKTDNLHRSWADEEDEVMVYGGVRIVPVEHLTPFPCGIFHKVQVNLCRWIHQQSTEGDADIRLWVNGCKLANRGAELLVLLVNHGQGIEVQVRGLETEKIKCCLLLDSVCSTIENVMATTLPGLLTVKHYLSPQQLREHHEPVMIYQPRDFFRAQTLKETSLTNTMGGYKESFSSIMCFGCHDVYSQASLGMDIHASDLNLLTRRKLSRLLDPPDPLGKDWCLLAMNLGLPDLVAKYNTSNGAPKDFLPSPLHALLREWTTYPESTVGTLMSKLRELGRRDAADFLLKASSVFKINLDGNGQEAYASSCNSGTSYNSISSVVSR

EGFR(L858R)(h) = target: T7, EGFR(L858R)(h) (Homo sapiens, UniProt P00533, L858R); test: Upstate kinase activity inhibition assay EGFR(L858R)(h); type: biochemical; details: 4 μM Compound E
T7 construct: purchased Upstate (KinaseProfiler service)

PASK(h) = target: T8, PASK(h) (Homo sapiens, UniProt Q96RG2); test: Upstate kinase activity inhibition assay PASK(h); type: biochemical; details: 40 min; read-out: percentage of enzyme activity that remains
T8 construct: purchased Upstate (KinaseProfiler service)

BrSK2(h) = target: T9, BrSK2(h) (Homo sapiens, UniProt Q8IWQ3); test: Upstate kinase activity inhibition assay BrSK2(h); type: biochemical; details: 40 min; read-out: percentage of enzyme activity that remains
T9 construct: purchased Upstate (KinaseProfiler service)

EphB3(h) = EphB3(h) (Homo sapiens, UniProt P54753); test: Upstate kinase activity inhibition assay EphB3(h); details: 40 min, read-out: percentage of enzyme activity that remains
CDK3/cyclinE(h) = target: T10, CDK3/cyclinE(h) (Homo sapiens, UniProt Q00526); test: Upstate kinase activity inhibition assay CDK3/cyclinE(h); type: biochemical; details: 4 μM Compound E
T10 construct: purchased Upstate (KinaseProfiler service)

c-RAF(h) = target: T11, c-RAF(h) (Homo sapiens, UniProt P04049, Y340D/Y341D); test: Upstate kinase activity inhibition assay c-RAF(h); type: biochemical; details: 40 min; read-out: percentage of enzyme activity that remains
T11 construct: purchased Upstate (KinaseProfiler service)

CSK(h) = target: T12, CSK(h) (Homo sapiens, UniProt P41240); test: Upstate kinase activity inhibition assay CSK(h); type: biochemical
T12 construct: purchased Upstate (KinaseProfiler service)

MKK7β(h) = MKK7β(h) (Homo sapiens, UniProt O14733); test: Upstate kinase activity inhibition assay MKK7β(h)
TAK1(h) = TAK1(h) (Homo sapiens, UniProt O43318); test: Upstate kinase activity inhibition assay TAK1(h); details: 40 min, read-out: percentage of enzyme activity that remains
Sequence of TAK1(h) (O43318 1-303 limits assumed): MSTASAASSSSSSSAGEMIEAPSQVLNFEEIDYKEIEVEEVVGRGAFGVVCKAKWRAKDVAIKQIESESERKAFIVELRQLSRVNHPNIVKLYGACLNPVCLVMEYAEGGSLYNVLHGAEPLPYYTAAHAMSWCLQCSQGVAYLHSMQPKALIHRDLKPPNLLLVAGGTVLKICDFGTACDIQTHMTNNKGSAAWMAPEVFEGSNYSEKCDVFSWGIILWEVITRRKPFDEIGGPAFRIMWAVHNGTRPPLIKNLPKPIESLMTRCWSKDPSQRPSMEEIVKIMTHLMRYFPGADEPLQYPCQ

PKCζ(h) = PKCζ(h) (Homo sapiens, UniProt Q05513); test: Upstate kinase activity inhibition assay PKCζ(h); details: 40 min, read-out: percentage of enzyme activity that remains
BrSK1(h) = target: T13, BrSK1(h) (Homo sapiens, UniProt Q8TDC3); test: Upstate kinase activity inhibition assay BrSK1(h); type: biochemical; details: 40 min; read-out: percentage of enzyme activity that remains
T13 construct: purchased Upstate (KinaseProfiler service)

Flt3(h) = Flt3(h) (Homo sapiens, UniProt P36888); test: Upstate kinase activity inhibition assay Flt3(h); details: 40 min, read-out: percentage of enzyme activity that remains
MSK2(h) = MSK2(h) (Homo sapiens, UniProt O75676); test: Upstate kinase activity inhibition assay MSK2(h); details: 40 min, read-out: percentage of enzyme activity that remains
Sequence of MSK2(h) (O75676 whole entry): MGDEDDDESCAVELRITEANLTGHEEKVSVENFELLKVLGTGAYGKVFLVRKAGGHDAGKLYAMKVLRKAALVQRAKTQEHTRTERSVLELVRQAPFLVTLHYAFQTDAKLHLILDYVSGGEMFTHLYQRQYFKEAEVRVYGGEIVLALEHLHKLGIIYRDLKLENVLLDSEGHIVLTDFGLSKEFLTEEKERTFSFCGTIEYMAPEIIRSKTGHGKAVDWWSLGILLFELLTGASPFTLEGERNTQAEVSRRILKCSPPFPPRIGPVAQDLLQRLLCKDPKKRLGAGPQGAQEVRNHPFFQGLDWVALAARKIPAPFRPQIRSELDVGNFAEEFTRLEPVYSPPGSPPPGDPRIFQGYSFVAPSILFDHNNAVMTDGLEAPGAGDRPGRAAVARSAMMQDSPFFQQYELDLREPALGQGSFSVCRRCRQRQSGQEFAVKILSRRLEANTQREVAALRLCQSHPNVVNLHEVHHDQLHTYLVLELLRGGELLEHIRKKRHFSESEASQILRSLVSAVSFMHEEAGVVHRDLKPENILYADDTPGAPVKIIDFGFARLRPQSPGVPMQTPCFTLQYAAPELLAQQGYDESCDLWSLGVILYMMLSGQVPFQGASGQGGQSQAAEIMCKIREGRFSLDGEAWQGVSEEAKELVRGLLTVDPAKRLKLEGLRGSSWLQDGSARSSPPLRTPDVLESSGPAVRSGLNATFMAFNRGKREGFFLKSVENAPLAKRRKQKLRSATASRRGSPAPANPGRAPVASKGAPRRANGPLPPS

RIPK2(h) = RIPK2(h) (Homo sapiens, UniProt O43353); test: Upstate kinase activity inhibition assay RIPK2(h); details: 40 min, read-out: percentage of enzyme activity that remains
JNK2α2(h) = JNK2α2(h) (Homo sapiens, UniProt P45984); test: Upstate kinase activity inhibition assay JNK2α2(h)
PDK1(h) = target: T14, PDK1(h) (Homo sapiens, UniProt O15530); test: Upstate kinase activity inhibition assay PDK1(h); type: biochemical; details: 40 min; read-out: percentage of enzyme activity that remains
T14 construct: purchased Upstate (KinaseProfiler service)
T14 sequence (O15530 whole entry): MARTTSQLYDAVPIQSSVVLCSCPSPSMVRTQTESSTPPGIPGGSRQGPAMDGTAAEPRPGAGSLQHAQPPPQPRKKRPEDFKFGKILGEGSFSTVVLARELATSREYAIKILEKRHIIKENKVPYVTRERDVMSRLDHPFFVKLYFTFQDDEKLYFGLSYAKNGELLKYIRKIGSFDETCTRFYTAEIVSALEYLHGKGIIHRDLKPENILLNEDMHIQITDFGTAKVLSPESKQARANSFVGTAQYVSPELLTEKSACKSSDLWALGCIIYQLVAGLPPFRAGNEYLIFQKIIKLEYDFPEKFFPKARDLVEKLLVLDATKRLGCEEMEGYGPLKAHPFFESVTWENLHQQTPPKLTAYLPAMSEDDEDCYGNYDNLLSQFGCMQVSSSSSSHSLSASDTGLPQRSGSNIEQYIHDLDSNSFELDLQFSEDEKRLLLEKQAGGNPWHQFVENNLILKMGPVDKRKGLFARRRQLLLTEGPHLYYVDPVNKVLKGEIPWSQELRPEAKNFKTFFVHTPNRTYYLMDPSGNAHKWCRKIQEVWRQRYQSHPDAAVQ

For Cc1cc(Nc2cc(N3CCN(C)CC3)nc(Sc3ccc(NC(=O)C4CC4)cc3)n2)n[nH]1 [Compound E, Cyclopropane carboxylic acid {4-[4-(4-methyl-piperazin-1-yl)-6-(5-methyl-2H-pyrazol-3-ylamino)-pyrimidin-2-ylsulphanyl]-phenyl}-amide], the remaining activity at 0.2 µM (SGK2(h)) was 102%, the remaining activity at 4 µM (SGK2(h)) was 102% and the remaining activity at 0.2 µM (TSSK2(h)) was 0%. For the same compound, the remaining activity at 4 µM (TSSK2(h)) was 0%, the remaining activity at 0.2 µM (Rsk3(h)) was 96% and the remaining activity at 4 µM (Rsk3(h)) was 60%. It also gave a remaining activity at 0.2 µM (PKBβ(h)) of 105%, a remaining activity at 4 µM (PKBβ(h)) of 85% and a remaining activity at 0.2 µM (Fer(h)) of 100%. It also gave a remaining activity at 4 µM (Fer(h)) of 48%, a remaining activity at 0.2 µM (Lyn(h)) of 45% and a remaining activity at 4 µM (Lyn(h)) of 3%. The remaining activity at 0.2 µM (SAPK4(h)) was 96%, the remaining activity at 4 µM (SAPK4(h)) was 92% and the remaining activity at 0.2 µM (PKCβII(h)) was 99%. For the same compound, the remaining activity at 4 µM (PKCβII(h)) was 94%, the remaining activity at 0.2 µM (PKCα(h)) was 115% and the remaining activity at 4 µM (PKCα(h)) was 105%. It also gave a remaining activity at 0.2 µM (DDR2(h)) of 100%, a remaining activity at 0.2 µM (Rsk2(h)) of 109% and a remaining activity at 4 µM (Rsk2(h)) of 82%. For the same compound, the remaining activity at 4 µM (Mnk2(h)) was 96%, the remaining activity at 0.2 µM (Arg(h)) was 8% and the remaining activity at 4 µM (Arg(h)) was -1%. The remaining activity at 0.2 µM (DAPK1(h)) was 107%, the remaining activity at 4 µM (DAPK1(h)) was 100% and the “percentage of enzyme activity that remains” value (EGFR(L858R)(h)) was 77%. For the same compound, the remaining activity at 0.2 µM (PASK(h)) was 98%, the remaining activity at 0.2 µM (BrSK2(h)) was 102% and the remaining activity at 4 µM (BrSK2(h)) was 96%. For the same compound, the remaining activity at 0.2 µM (EphB3(h)) was 99%, the remaining activity at 4 µM (EphB3(h)) was 89% and the “percentage of enzyme activity that remains” value (CDK3/cyclinE(h)) was 97%. For the same compound, the remaining activity at 0.2 µM (c-RAF(h)) was 106%, the remaining activity at 4 µM (c-RAF(h)) was 100% and the “percentage of enzyme activity that remains” value (CSK(h); 0.2 μM Compound E) was 108%. The “percentage of enzyme activity that remains” value (CSK(h); 4 μM Compound E) was 87%, the “percentage of enzyme activity that remains” value (MKK7β(h); 0.2 μM Compound E) was 91% and the “percentage of enzyme activity that remains” value (MKK7β(h); 4 μM Compound E) was 97%. The remaining activity at 0.2 µM (TAK1(h)) was 99%, the remaining activity at 4 µM (TAK1(h)) was 66% and the remaining activity at 0.2 µM (PKCζ(h)) was 107%. It also gave a remaining activity at 4 µM (PKCζ(h)) of 97%, a remaining activity at 0.2 µM (BrSK1(h)) of 115% and a remaining activity at 4 µM (BrSK1(h)) of 97%. For the same compound, the remaining activity at 0.2 µM (Flt3(h)) was 21%, the remaining activity at 4 µM (Flt3(h)) was 7% and the remaining activity at 0.2 µM (MSK2(h)) was 117%. For the same compound, the remaining activity at 4 µM (MSK2(h)) was 97%, the remaining activity at 0.2 µM (RIPK2(h)) was 107% and the remaining activity at 4 µM (RIPK2(h)) was 105%. The “percentage of enzyme activity that remains” value (JNK2α2(h); 0.2 μM Compound E) was 107%, the “percentage of enzyme activity that remains” value (JNK2α2(h); 4 μM Compound E) was 105% and the remaining activity at 0.2 µM (PDK1(h)) was 97%. The remaining activity at 4 µM (PDK1(h)) was 86%.
